Results published in patent US7247634B2, “Rifamycin derivatives effective against drug-resistant microbes” (Cumbre Pharmaceuticals Inc., priority 2004, dated 2007).
Converted amounts (≈) assume the structure as drawn. Where two headings read alike, the source gives them in different places.

Experiments:
Format in all cases: cell-based
[1] = system: Haemophilus influenzae ATCC10211; assay: MIC, microbroth dilution (NCCLS); settings: rifS strain, BHI Broth with NAD and hematin, 37° C., read-out: Antimicrobial activity (MIC)
[2] = system: Escherichia coli ATCC25922; assay: MIC, microbroth dilution (NCCLS); settings: rifS strain, Cation-Adjusted Mueller-Hinton Broth, 37° C., read-out: Antimicrobial activity (MIC)
[3] = system: Mycobacterium smegmatis ATCC700084; assay: MIC, microbroth dilution (NCCLS); settings: Mycolicibacterium smegmatis, rifS strain, Middlebrook Broth plus ADC Enrichment, 37° C., read-out: Antimicrobial activity (MIC)
[4] = system: Staphylococcus epidermidis ATCC12228; assay: MIC, microbroth dilution (NCCLS); settings: rifS strain, Cation-Adjusted Mueller-Hinton Broth, 37° C., read-out: Antimicrobial activity (MIC)
[5] = system: Enterococcus faecalis ATCC29212; assay: MIC, microbroth dilution (NCCLS); settings: rifS strain, BHI Broth, 37° C., read-out: Antimicrobial activity (MIC)
[6] = system: Streptococcus pneumoniae ATCC6303; assay: MIC, microbroth dilution (NCCLS); settings: rifS strain, THY Broth with 1 mg/mL catalase, 5% CO2, 37° C., read-out: Antimicrobial activity (MIC)
[7] = system: Streptococcus pyogenes ATCC19615; assay: MIC, microbroth dilution (NCCLS); settings: rifS strain, THY Broth, 37° C., read-out: Antimicrobial activity (MIC)
[8] = system: Staphylococcus aureus ATCC29213; assay: MIC, microbroth dilution (NCCLS); settings: rifS strain, Cation-Adjusted Mueller-Hinton Broth, 37° C., read-out: Antimicrobial activity (MIC)
[9] = system: Staphylococcus aureus EN1252a gyrA^S84L grlA^S80F; assay: microbe, parasite or virus in culture; settings: read-out: Antimicrobial activity (MIC)
Summary of the method: (§1)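 MICs by NCCLS broth microdilution, incubation at 37 °C, in cation-adjusted Mueller-Hinton broth. Strains: rifampin-resistant S. aureus ATCC 29213 with rpoB D417Y or H418Y, and quinolone-resistant EN1252a carrying gyrA S84L plus grlA S80F.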

[10] = system: Staphylococcus aureus ATCC29213 rpoB^D417Y; assay: microbe, parasite or virus in culture
Summary of the method: as §1

[11] = system: Staphylococcus aureus ATCC29213 rpoB^H418Y; assay: microbe, parasite or virus in culture
Summary of the method: as §1

[12] = MIC, rifampin-susceptible Gram-positive strains (panel); settings: across five rifampin-susceptible Gram-positive strains
Experimental: (§2) Representative compounds were assayed for antimicrobial activity as follows: Minimum Inhibitory Concentrations (“MICs”) were determined by the microbroth dilution method as per NCCLS guidelines (National Committee for Clinical Laboratory Standards. 2000. Methods for dilution antimicrobial susceptibility tests for bacteria that grow aerobically, 5th ed. M7-A5. National Committee for Clinical Laboratory Standards, Wayne, Pa.), except that all growth incubations were conducted at 37° C. Bacterial cultures were tested in the following bacteriological media: S. aureus, S. epidermidis, and E. coli in Cation-Adjusted Mueller-Hinton Broth, S. pneumoniae in THY Broth supplemented with 1 mg/mL catalase under 5% CO2 atmosphere, S. pyogenes in THY Broth, E. faecalis in BHI Broth, H. influenzae in BHI Broth supplemented with 0.75 μL of 1 mg/mL NAD and 150 μL of 1 mg/ml hematin per 5 mL, and M. smegmatis in Middlebrook Broth plus ADC Enrichment.
(§3) S. aureus ATCC […], S. epidermidis ATCC 12228, S. pneumoniae ATCC6303, S. pyogenes ATCC 19615 and E. faecalis ATCC 29212 are rifampin-susceptible Gram-positive strains. […] H. influenzae ATCC 10211 and E. coli ATCC 25922 are Gram-negative bacteria.

[13] = system: H. influenzae ATCC 10211 and E. coli ATCC 25922; assay: MIC, Gram-negative bacteria (panel); settings: across two Gram-negative strains
Experimental: as §2, §3

[14] = ATCC29213, read-out: Antimicrobial activity (MIC)

Compound | MIC [1] | MIC [2] | MIC [3] | MIC [4] | MIC [5] | MIC [6] | MIC [7] | MIC [8] | MIC [9] | MIC [10, 14] | MIC [11, 14] | MIC [12] | MIC [13] | MIC ([10]; ATCC29213) | MIC ([11]; ATCC29213)
CO[C@H]1/C=C/O[C@@]2(C)Oc3c(C)c(O)c4c(c3C2=O)C(=O)C(N2CCCC3(CCN(c5nc6c(cc5F)c(=O)c(C(=O)O)cn6-c5ccc(F)cc5F)C3)C2)=C(NC(=O)/C(C)=C\C=C\[C@H](C)[C@H](O)[C@@H](C)[C@@H](O)[C@@H](C)[C@H](OC(C)=O)[C@@H]1C)C4=O (some centres unmarked) [Example 60] | 0.125 to 2 µg/mL (≈ 0.108 to 1.74 µM) | 0.125 to 8 µg/mL (≈ 0.108 to 6.94 µM) | 0.5 to 64 µg/mL | 0.008 to 0.063 µg/mL (≈ 0.00694 to 0.0547 µM) | 2 to 32 µg/mL (≈ 1.74 to 27.8 µM) | 0.008 to 0.125 µg/mL (≈ 0.00694 to 0.108 µM) | 0.008 to 0.063 µg/mL (≈ 0.00694 to 0.0547 µM) | 0.004 to 0.5 µg/mL (≈ 0.00347 to 0.434 µM) | 0.004 to 0.5 µg/mL (≈ 0.00347 to 0.434 µM) | 0.06 to 32 µg/mL (≈ 0.0521 to 27.8 µM) | 0.06 to 16 µg/mL (≈ 0.0521 to 13.9 µM) |  |  |  | 
CO[C@H]1/C=C/O[C@@]2(C)Oc3c(C)c(O)c4c(O)c(c(/C=N/N5CCN(C)CC5)c(O)c4c3C2=O)NC(=O)/C(C)=C\C=C\[C@H](C)[C@H](O)[C@@H](C)[C@@H](O)[C@@H](C)[C@H](OC(C)=O)[C@@H]1C [rifampin, reference compound] | 0.24 µg/mL (≈ 0.292 µM) | 16 µg/mL (≈ 19.4 µM) | 64 µg/mL | 0.03 µg/mL (≈ 0.0365 µM) | 1 µg/mL (≈ 1.22 µM) | 0.061 µg/mL (≈ 0.0741 µM) | 0.013 µg/mL (≈ 0.0158 µM) | 0.008 µg/mL (≈ 0.00972 µM) | 0.004 µg/mL (≈ 0.00486 µM) | > 64 µg/mL | 8 µg/mL (≈ 9.72 µM) | 0.008 to 1 µg/mL (≈ 0.00972 to 1.22 µM) | 0.24 to 16 µg/mL (≈ 0.292 to 19.4 µM) | > 64 µg/mL | 8 µg/mL (≈ 9.72 µM)
